Where two headings read alike, the source gives them in different places.
Legend:
NPP1 = target: T1, NPP1 (Homo sapiens, UniProt P22413); test: Inhibition of human NPP1, pNP-TMP as substrate (analogues 9-12); format: biochemical
T1 sequence (P22413 1-925): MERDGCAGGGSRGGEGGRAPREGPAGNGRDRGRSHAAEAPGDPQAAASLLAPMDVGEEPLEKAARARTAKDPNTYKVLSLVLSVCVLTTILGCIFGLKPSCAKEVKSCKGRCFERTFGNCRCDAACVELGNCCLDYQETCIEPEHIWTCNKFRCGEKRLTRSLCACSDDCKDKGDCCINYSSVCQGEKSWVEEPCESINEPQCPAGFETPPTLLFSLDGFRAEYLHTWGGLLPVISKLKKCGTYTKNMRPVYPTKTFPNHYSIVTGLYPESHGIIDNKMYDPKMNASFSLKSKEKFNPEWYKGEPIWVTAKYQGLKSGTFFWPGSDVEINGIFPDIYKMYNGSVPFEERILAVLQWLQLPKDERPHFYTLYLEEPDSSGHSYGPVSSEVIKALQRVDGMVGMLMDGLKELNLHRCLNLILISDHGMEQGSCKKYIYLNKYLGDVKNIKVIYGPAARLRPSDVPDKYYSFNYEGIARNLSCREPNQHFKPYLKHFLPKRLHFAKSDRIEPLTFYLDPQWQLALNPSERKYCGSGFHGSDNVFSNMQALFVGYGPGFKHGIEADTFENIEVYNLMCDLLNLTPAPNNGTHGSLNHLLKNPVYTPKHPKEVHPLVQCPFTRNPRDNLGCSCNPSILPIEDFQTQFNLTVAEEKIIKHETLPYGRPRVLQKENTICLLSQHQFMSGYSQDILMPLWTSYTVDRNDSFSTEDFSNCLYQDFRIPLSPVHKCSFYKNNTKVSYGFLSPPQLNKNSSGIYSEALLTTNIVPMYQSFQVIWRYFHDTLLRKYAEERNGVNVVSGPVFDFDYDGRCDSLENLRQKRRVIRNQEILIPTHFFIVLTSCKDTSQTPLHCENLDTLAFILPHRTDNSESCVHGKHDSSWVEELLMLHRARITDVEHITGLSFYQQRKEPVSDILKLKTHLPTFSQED
Experimental: (§1) FIG. 2: Inhibition of NTPDases and NPPs by analogues 9-12 using as substrates ATP (100 μM) for NTPDase1,2,3,8 and pNP-TMP (100 μM) for NPP1,3 (Panel A); and ATP (100 μM) was used as the substrate for NPP1 (Panel B);
Analogues 9-12 were evaluated for their ability to inhibit human NPP1.
(§2) At least 2 independent experiments were performed. In panel A, the activity with 100 μM ATP was set as 100%, which was 287±31, 395±67, 278±22, 119±26 nmol of Pi·min−1·mg of protein−1 for human NTPDase1, -2, -3 and -8, respectively, and the activity with 100 μM pNP-TMP was set as 100% which was 67±5, 21±1 nmol of p-nitrophenol·min−1·mg of protein−1 for human NPP1 and NPP3, respectively. In panel B, the activity with 100 μM ATP was set as 100% which was 34±7 nmol of PPi·min−1·mg of protein−1 for NPP1.

human NPP3 = target: T2, human NPP3 (Homo sapiens, UniProt O14638); test: Inhibition of human NPP3, pNP-TMP as substrate (analogues 9-12); format: biochemical; details: analogue at 100 μM; pNP-TMP 100 μM as substrate
T2 sequence (O14638 1-875): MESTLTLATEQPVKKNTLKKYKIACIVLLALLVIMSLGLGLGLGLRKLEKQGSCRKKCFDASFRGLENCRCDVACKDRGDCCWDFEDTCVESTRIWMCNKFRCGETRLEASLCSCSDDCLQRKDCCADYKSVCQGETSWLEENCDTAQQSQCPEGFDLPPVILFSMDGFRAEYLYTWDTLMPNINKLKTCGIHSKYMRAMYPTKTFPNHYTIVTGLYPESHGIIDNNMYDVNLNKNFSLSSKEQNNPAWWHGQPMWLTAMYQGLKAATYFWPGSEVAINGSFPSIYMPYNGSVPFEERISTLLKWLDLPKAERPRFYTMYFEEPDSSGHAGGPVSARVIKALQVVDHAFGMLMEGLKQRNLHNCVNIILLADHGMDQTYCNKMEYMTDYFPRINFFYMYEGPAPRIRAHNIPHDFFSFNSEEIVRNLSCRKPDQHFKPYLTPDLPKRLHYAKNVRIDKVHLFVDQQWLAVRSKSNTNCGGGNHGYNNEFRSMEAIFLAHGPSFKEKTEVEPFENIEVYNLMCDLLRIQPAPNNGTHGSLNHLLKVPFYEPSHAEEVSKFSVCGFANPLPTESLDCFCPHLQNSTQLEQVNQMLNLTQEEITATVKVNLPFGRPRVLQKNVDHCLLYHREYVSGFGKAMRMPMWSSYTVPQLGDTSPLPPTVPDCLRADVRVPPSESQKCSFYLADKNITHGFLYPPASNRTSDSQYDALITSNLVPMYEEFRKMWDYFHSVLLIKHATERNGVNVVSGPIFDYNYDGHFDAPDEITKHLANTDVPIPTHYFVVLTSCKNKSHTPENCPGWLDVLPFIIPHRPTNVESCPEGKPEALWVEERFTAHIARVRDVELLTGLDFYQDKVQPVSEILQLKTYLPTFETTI
Experimental: as §1, §2

NTPDase2 = target: T3, NTPDase2 (Homo sapiens, UniProt Q9Y5L3); test: Inhibition of ATPase activity of human NTPDase2; format: biochemical; details: analogue at 100 μM; ATP 100 μM as substrate
T3 sequence (Q9Y5L3 1-495): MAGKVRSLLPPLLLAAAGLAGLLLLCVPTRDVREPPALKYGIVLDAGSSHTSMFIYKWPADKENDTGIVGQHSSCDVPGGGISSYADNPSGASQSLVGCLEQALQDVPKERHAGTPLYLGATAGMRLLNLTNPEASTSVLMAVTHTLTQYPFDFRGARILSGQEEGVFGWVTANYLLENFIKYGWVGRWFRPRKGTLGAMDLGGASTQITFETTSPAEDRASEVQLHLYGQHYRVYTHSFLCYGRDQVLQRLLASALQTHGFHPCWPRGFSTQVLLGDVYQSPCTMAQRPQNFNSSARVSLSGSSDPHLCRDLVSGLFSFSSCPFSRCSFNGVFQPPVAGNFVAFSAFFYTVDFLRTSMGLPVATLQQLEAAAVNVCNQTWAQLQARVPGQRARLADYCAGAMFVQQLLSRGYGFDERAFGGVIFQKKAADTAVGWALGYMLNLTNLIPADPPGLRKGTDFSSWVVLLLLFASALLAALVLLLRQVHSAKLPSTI
Experimental: as §1, §2

[1] = Stability to air-oxidation by 31P-NMR; format: physicochemical; details: aqueous solution, constant air flow, RT, 3 weeks
Source text: To evaluate the chemical stability of uridine-5′-Pα,α-dithiophosphate analogues, we measured by 31P-NMR the time-dependent percentage of the analogues remaining under basic and acidic conditions, and due to air-oxidation.
An aqueous solution of 10 was subjected to a constant air flow.

[2] = Chemical stability under acidic and basic conditions by 31P-NMR
[3] = analogue at 100 μM, pNP-TMP 100 μM as substrate
[4] = pNP-TMP as a substrate, mean±SEM
[5] = pNP-TMP as a substrate, mean±SEM, read-out: Ki (μM), NPP1 inhibition

O=c1ccn([C@@H]2O[C@H](COP(=S)(S)OP(=O)(O)OP(=O)(O)O)[C@@H](O)[C@H]2O)c(=O)[nH]1 (some centres unmarked) [Analogue 10]
inhibition at 100 µM (NPP1; [3]): 100% | IC50 (NPP1; [4]): 1.2 ± 0.1 µM | Ki (NPP1; [5]): 0.24 ± 0.02 µM | inhibition of human NPP3 (human NPP3): no inhibition | inhibition of human NTPDase2 (NTPDase2): no inhibition | stability to air-oxidation [1]: no new signals | decomposition ([2]; basic, pD 12.1, after 25 days): 24% | decomposition of starting material ([2]; pD 2.1 (pH 1.7), RT, 23 days): 15%

O=c1ccn([C@@H]2O[C@H](COP(=S)(S)OP(=O)(O)CP(=O)(O)O)[C@@H](O)[C@H]2O)c(=O)[nH]1 (some centres unmarked) [Analogue 11]
IC50 (NPP1; [4]): 4.3 ± 0.1 µM | Ki (NPP1; [5]): 1.11 ± 0.19 µM | inhibition at 100 µM (human NPP3): 21% | inhibition of human NTPDase2 (NTPDase2): negligible effects | stability to air-oxidation [1]: complete stability | decomposition ([2]; basic, pD 12.1, after 25 days): 23% | decomposition ([2]; pD 2.1, after 25 days): 6%

O=c1ccn([C@@H]2O[C@H](COP(=S)(S)OP(=O)(O)OP(=O)(O)OP(=S)(S)OC[C@H]3O[C@@H](n4ccc(=O)[nH]c4=O)[C@H](O)[C@@H]3O)[C@@H](O)[C@H]2O)c(=O)[nH]1 (some centres unmarked) [Analogue 12]
inhibition of human NPP1 (NPP1; [3]): effectively blocked | IC50 (NPP1; [4]): 0.125 ± 0.004 µM | Ki (NPP1; pNP-TMP as the substrate, read-out: Ki, NPP1): 0.027 µM | inhibition at 100 µM (human NPP3): 27% | inhibition of human NTPDase2 (NTPDase2): selective to NPP1 | stability to air-oxidation [1]: completely resistant | loss of compound ([2]; basic, pD 12.6, after 16 days): 13% | decomposition ([2]; pD 1.8 (pH 1.4), 16 days, RT): 6%
